Assay results: PMC8658948, “Exploring Amantadine Derivatives as Urease Inhibitors: Molecular Docking and Structure–Activity Relationship (SAR) Studies” (Molecules, 2021)
Read-outs that look alike come from different tables or passages of the source.

Columns and labels:
[1] = DPPH free radical scavenging assay; conditions: 100 µg/mL, mean (SEM)
Procedure: The 2,2-diphenyl-1-picrylhydrazyl (DPPH) test was used to assess radical scavenging activity. By using ascorbic acid as a reference inhibitor, 100 µL of DPPH ([…]), 20 µL of escalating concentrations of test compounds, and the volume adjusted to 200 µL in each well with methanol were incubated for 30 min at room temperature. At 517 nm, an OPTI Max Tunable microplate reader was used to perform assay measurements. The % inhibition caused by the investigated inhibitors was calculated after response rates were compared.

[2] = target: T1, Jack bean urease (Canavalia ensiformis, UniProt P07374); assay: biochemical
T1 sequence (P07374 whole entry, looked up): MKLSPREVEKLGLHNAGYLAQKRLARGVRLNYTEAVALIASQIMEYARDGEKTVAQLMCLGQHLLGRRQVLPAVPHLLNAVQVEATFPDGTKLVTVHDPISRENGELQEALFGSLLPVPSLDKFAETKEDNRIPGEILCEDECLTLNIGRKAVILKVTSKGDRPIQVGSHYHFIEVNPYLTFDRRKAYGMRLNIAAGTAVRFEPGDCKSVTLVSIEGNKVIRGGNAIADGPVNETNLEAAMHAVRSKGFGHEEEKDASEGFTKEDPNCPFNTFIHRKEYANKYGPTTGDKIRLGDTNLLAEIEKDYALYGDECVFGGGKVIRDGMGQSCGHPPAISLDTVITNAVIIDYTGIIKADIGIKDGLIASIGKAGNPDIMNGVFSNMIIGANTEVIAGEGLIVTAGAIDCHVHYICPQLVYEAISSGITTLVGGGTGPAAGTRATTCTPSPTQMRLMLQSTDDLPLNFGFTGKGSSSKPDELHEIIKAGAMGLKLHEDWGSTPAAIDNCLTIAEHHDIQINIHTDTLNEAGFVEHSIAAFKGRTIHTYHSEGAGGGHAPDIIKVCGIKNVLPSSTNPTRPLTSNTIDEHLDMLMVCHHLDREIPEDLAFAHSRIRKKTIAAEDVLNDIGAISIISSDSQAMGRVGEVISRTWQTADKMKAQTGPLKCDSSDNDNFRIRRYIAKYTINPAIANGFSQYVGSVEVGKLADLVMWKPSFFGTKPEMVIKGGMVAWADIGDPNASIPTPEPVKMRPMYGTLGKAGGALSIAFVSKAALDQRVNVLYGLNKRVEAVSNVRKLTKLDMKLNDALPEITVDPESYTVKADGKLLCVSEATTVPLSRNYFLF
Procedure: The amount of NH3 produced with indophenol’s method reported in the literature was used to estimate Jack bean urease activity. In a 96-well plate, reaction mixtures containing 20 µL of Jack bean urease at 5 U/mL and 20 µL of compounds in 50 µL of potassium phosphate buffer (100 mM urea, 10 mM K2HPO4, 1 mM EDTA, and 10 mM LiCl, pH 8.2) were incubated for 30 min at 37 °C. Briefly, 50 μL each of phenol reagents (1%, w/v phenol and 0.005%, w/v sodium nitroprusside) and 50 μL of alkali reagent (0.5%, w/v NaOH and 0.1% NaOCl were added to each well. The absorbance at 625 nm was evaluated after 10 min by utilizing a microplate reader (OPTIMax, Tunable). Each of the reactions was accomplished in triplicate. The urease inhibition activities were calculated using the following formula:(1) Urease inhibition activity %=ODcontrol−ODsample×100/ODcontrol where ODcontrol and ODsample represent the optical densities in the absence and presence of sample, respectively, by using thiourea as standard.

[3] = target: T1, Jack bean urease; assay: Kinetic analysis of urease inhibition (Lineweaver-Burk plot); assay type: biochemical; conditions: for Vmax: substrate urea
Source text: The kinetic studies of the enzyme by the Lineweaver–Burk plot of 1/V versus 1/[S] in the presence of different compound concentrations produced a series of straight lines (Figure 3A). […] Thus, compounds 3f inhibit the urease non-competitively in order to form an enzyme inhibitor complex.
Based on IC50 values, compound 3j was identified as the most powerful. Changing the concentration of urea at different concentrations of 3j (0.00, 0.0042, 0.0085, and 0.017 M) was used to study kinetics. For urease kinetics, the urea concentration was quickly adjusted from 100, 50, 25, 12.5, 6.25, and 3.12 mM. The highest preliminary velocities were determined from initial linear portion of absorbance up to 10 min after the addition of enzyme at per minute’s interval. The inhibition type was determined by Lineweaver-Burk plot (1/V) versus 1/[S] mM^−1. The EI dissociation constant Ki was ascertained by secondary plot of 1/V against inhibitor concentration. […] The results were processed by using SoftMaxPro.

| Compound | melting point | Free radical % Scavenging [1] | IC50 [2] | further results |
| --- | --- | --- | --- | --- |
| O=C(NC(=S)NC12CC3CC(CC(C3)C1)C2)c1ccc(F)cc1 [Compound 3a, N-(Adamantan-1-ylcarbamothioyl)-4-fluorobenzamide] | 180 to 182 °C | 4.18 (0.03) % | 10 nM | – |
| O=C(NC(=S)NC12CC3CC(CC(C3)C1)C2)c1ccc(Cl)cc1Cl [Compound 3b, N-(Adamantan-1-ylcarbamothioyl)-2,4-dichlorobenzamide] | 204 to 205 °C | 1.46 (0.02) % | 10 nM | – |
| CCCC(=O)NC(=S)NC12CC3CC(CC(C3)C1)C2 [Compound 3c, N-(Adamantan-1-ylcarbamothioyl)butyramide] | 136 to 137 °C | 2.51 (0.00) % | 30 nM | – |
| COc1ccc(C(=O)NC(=S)NC23CC4CC(CC(C4)C2)C3)cc1 [Compound 3d, N-(Adamantan-1-ylcarbamothioyl)-4-methoxybenzamide] | 178 to 179 °C | 1.86 (0.01) % | 20 nM | – |
| O=C(NC(=S)NC12CC3CC(CC(C3)C1)C2)c1ccc(Cl)cc1 [Compound 3e, N-(Adamantan-1-ylcarbamothioyl)-4-chlorobenzamide] | 182 to 183 °C | 13.36 (0.01) % | 30 nM | – |
| CCCCC(=O)NC(=S)NC12CC3CC(CC(C3)C1)C2 [Compound 3f, N-(Adamantan-1-ylcarbamothioyl)pentanamide] | 141 to 142 °C | 4.26 (0.00) % | 30 nM | – |
| O=C(NC(=S)NC12CC3CC(CC(C3)C1)C2)c1ccccc1Cl [Compound 3g, N-(Adamantan-1-ylcarbamothioyl)-2-chlorobenzamide] | 185 to 187 °C | 1.12 (0.03) % | 8.7 nM | – |
| CCCCCCC(=O)NC(=S)NC12CC3CC(CC(C3)C1)C2 [Compound 3h, N-(Adamantan-1-ylcarbamothioyl)heptanamide] | 149 to 151 °C | 15.36 (0.01) % | 10 nM | – |
| O=C(NC(=S)NC12CC3CC(CC(C3)C1)C2)c1cc([N+](=O)[O-])cc([N+](=O)[O-])c1 [Compound 3i, N-(Adamantan-1-ylcarbamothioyl)-3,5-dinitrobenzamide] | 210 to 211 °C | 5.91 (0.05) % | 10 nM | – |
| CCCCCCCC(=O)NC(=S)NC12CC3CC(CC(C3)C1)C2 [Compound 3j, N-(Adamantan-1-ylcarbamothioyl)octanamide] | 158 to 159 °C | 9.96 (0.06) % | – | Ki [3]: 7 nM; Inhibition Type ([3]; Lineweaver-Burk plot): Non-Competitive; Vmax ([3]; inhibitor dose 0.0042 µM): 0.001561 ΔA/Min; Vmax ([3]; inhibitor dose 0.0085 µM): 0.001224 ΔA/Min; Vmax ([3]; inhibitor dose 0.017 µM): 0.001208 ΔA/Min |
| NC(N)=S [Thiourea, reference compound] | – | – | – | IC50 ([2]; Jack bean urease, 30 min at 37 °C, pH 8.2, mean (SEM), read-out: Urease Activity IC50 ± SEM): 4740 nM |
| O=C1O[C@H]([C@@H](O)CO)C(O)=C1O [Vitamin C, ascorbic acid, reference compound] | – | 95.15 (0.05) % | – | – |
